Data taken from publication PMC2851645, “An Odorant Receptor from the Southern House Mosquito Culex pipiens quinquefasciatus Sensitive to Oviposition Attractants” (PLoS ONE, 2010).
“Also recorded” adds a separate entry of the source. Like-named read-outs stand apart in the source and are kept apart here.

How the values were obtained:
CquiOR2 + CquiOR7 = CquiOR2 + CquiOR7 (Culex quinquefasciatus, UniProt D5LMR6); test: Two-electrode voltage clamp of Xenopus oocytes expressing CquiOR2 + CquiOR7; assay type: cell-based; settings: for nH (Hill coefficient): Hill fit of concentration-response data, 5–16 oocytes; for Emax: read-out: Relative Efficacy; for current response in panel screen: each compound applied for 20 s at 10 µM; for relative efficacies (maximal responses) compared with indole: in words
CquiOR2 + CquiOR7, sequence (Q309I4 entry or part of it): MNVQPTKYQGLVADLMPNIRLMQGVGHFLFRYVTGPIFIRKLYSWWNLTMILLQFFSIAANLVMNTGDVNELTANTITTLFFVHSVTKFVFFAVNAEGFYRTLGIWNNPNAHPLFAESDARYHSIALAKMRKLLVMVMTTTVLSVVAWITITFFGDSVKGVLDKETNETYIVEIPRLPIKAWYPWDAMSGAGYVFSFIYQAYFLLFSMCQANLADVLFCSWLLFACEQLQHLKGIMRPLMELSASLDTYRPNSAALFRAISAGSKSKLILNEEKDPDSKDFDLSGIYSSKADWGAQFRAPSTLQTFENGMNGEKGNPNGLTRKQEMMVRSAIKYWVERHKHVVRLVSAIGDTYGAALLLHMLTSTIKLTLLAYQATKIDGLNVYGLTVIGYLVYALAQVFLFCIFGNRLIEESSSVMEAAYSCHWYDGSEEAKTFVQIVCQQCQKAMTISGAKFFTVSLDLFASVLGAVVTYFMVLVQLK
CquiOR2 + CquiOR7, sequence (D5LMR6 entry or part of it): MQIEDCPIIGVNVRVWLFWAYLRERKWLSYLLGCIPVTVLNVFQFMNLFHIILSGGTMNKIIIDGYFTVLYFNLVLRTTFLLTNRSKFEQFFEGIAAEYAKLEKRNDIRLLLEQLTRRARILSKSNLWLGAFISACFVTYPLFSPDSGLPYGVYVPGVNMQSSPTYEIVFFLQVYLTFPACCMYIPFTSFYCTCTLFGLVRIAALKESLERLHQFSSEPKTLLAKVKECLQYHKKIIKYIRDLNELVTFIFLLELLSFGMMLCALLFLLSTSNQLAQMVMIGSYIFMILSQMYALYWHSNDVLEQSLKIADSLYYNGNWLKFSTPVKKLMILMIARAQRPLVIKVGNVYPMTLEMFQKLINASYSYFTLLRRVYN
Description: Oocytes were surgically removed from mature Xenopus laevis frogs (Nasco). The care and use of Xenopus laevis frogs in this study were approved by the University of Miami Animal Research Committee and meet the guidelines of the National Institutes of Health. Follicle cells were removed by treatment with Collagenase B (Boehringer Mannhem) for 2 h at room temperature. CquiOR2 and CquiOR7 were transferred into pGEMHE [27]. Capped cRNA encoding each OR subunit was generated using mMessage mMachine kits (Ambion). 25 ng of cRNA encoding each OR subunit was injected into Stage V-VI Xenopus oocytes. Oocytes were incubated at 18°C in Barth's saline (in mM: 88 NaCl, 1 KCl, 2.4 NaHCO3, 0.3 CaNO3, 0.41 CaCl2, 0.82 MgSO4, 15 HEPES, pH 7.6, and 100 µg/ml amikacin) for 2–5 days prior to electrophysiological recording.
Odorant-induced currents were recorded under two-electrode voltage clamp from oocytes expressing ORs, using an automated parallel electrophysiology system (OpusXpress 6000A; Molecular Devices). Oocytes were perfused with ND96 (in mM: 96 NaCl, 2 KCl, 1 CaCl2, 1 MgCl2, 5 HEPES, pH 7.5). […] Micropipettes were filled with 3 M KCl and had resistances of 0.2–2.0 MΩ. The holding potential was −70 mV. Current responses were filtered (4-pole, Bessel, low pass) at 20 Hz (-3 db), sampled at 100 Hz and were captured and stored using OpusXpress 1.1 software (Molecular Devices). Initial analysis of electrophysiological data was done using Clampfit 9.1 software (Molecular Devices). Curve fitting of concentration-response data was done using Prism 4 (Graphpad). Concentration-response data were fit to the equation: I = Imax/(1+(EC50/X)^n) where I represents the current response at a given concentration of odorant, X; Imax is the maximal response; EC50 is the concentration of odorant yielding a half maximal response; n is the apparent Hill coefficient.

AgamOR2 = test system: AgamOR2; set-up: method as in PMID 20130575, PMID 20160092, PMID 14724626, PMID 18427108; settings: cited from earlier work
[1] = test system: ORN-B in the blunt-tipped trichoid sensilla A2; set-up: method as in PMID 19858490; settings: cited from earlier work; for excitatory response of ORN-B: compounds tested individually
AgamOR10 = test system: AgamOR10; set-up: method as in PMID 20130575, PMID 20160092, PMID 18427108; settings: cited from earlier work
gravid Culex mosquitoes = test system: gravid Culex mosquitoes; set-up: method as in PMID 18725946, PMID 10083752, PMID 1583482, PMID 15274442; settings: indoor bioassays and field tests; cited from earlier work
[2] = 20 s applications, Hill fit, mean ± SEM, 5–16 separate oocytes, read-out: EC50
[3] = maximum value from fit, as percentage of the maximum value for indole, mean ± SEM

SMILES | nH (Hill coefficient) (CquiOR2 + CquiOR7; mean ± SEM) | EC50 (CquiOR2 + CquiOR7; [2]) | Emax (CquiOR2 + CquiOR7; [3]) | relative efficacies (maximal responses) compared with indole (CquiOR2 + CquiOR7) | other results
Cn1ccc2ccccc21 [1-Methylindole] | 1.3±0.5 |  |  |  | EC50 (CquiOR2 + CquiOR7): 20 ± 6 µM; Emax (CquiOR2 + CquiOR7): 84 ± 9%
Cc1ccccc1O [2-Methylphenol] | 1.0±0.2 |  |  | lower relative efficacies than indole | response of AgamOR2 (AgamOR2): strongly respond; EC50 (CquiOR2 + CquiOR7): 7.3 ± 1.5 µM; current response in panel screen (CquiOR2 + CquiOR7): responded well; also recorded: best responses for phenolic compounds; Emax (CquiOR2 + CquiOR7): 70 ± 9%; excitatory response of ORN-B [1]: eliciting the strongest response
Cc1cccc(O)c1 [3-methylphenol] |  |  |  |  | response threshold compared with 2-methylphenol [1]: three orders of magnitude higher
Cc1ccc(O)cc1 [4-methylphenol] |  |  |  |  | response threshold compared with 2-methylphenol [1]: three orders of magnitude higher; response of AgamOR10 (AgamOR10): strongly respond
c1ccc2[nH]ccc2c1 [Indole] | 0.8±0.2 |  |  |  | response of AgamOR2 (AgamOR2): strongly respond; EC50 (CquiOR2 + CquiOR7): 0.28 ± 0.12 µM; selectivity for indole over the various methylindoles (CquiOR2 + CquiOR7; Xenopus oocyte system): 10- to 70 fold; current response in panel screen (CquiOR2 + CquiOR7): largest current responses; Emax (CquiOR2 + CquiOR7): 100%; excitatory response of ORN-B [1]: strongest dose-dependent responses; selectivity for indole over methylindoles ([1]; single sensillum recordings from A2): three orders of magnitude selectivity; response of AgamOR10 (AgamOR10): strongly respond; attraction of gravid Culex mosquitoes (gravid Culex mosquitoes): attractants

Now from value to molecule, other results behind:

nH (Hill coefficient) (CquiOR2 + CquiOR7; mean ± SEM) | EC50 (CquiOR2 + CquiOR7; [2]) | Emax (CquiOR2 + CquiOR7; [3]) | relative efficacies (maximal responses) compared with indole (CquiOR2 + CquiOR7) | SMILES | other results
0.9±0.4 | 7.5 ± 4.1 µM | 106 ± 16% |  | Cc1cc2ccccc2[nH]1 [2-Methylindole] | 
0.9±0.2 | 20 ± 6 µM | 92 ± 8% |  | Cc1c[nH]c2ccccc12 [3-Methylindole] | response of AgamOR2 (AgamOR2): strongly respond; response of AgamOR10 (AgamOR10): strongly respond; attraction of gravid Culex mosquitoes (gravid Culex mosquitoes): attractants
1.0±0.2 | 3.6 ± 0.8 µM | 60 ± 4% | lower relative efficacies than indole | Cc1cccc2[nH]ccc12 [4-Methylindole] | 
1.1±0.2 | 8.6 ± 2 µM | 59 ± 4% | lower relative efficacies than indole | Cc1ccc2[nH]ccc2c1 [5-Methylindole] | 
0.9±0.2 | 3 ± 0.6 µM | 69 ± 4% | lower relative efficacies than indole | Cc1ccc2cc[nH]c2c1 [6-Methylindole] | 
1.1±0.2 | 18 ± 3 µM | 67 ± 4% | lower relative efficacies than indole | Cc1cccc2cc[nH]c12 [7-Methylindole] | 
